{"source": "patent US20030148929A1", "about": "“Nucleic acid carriers and pharmaceutical compositions for gene therapy” (Hisamitsu Pharmaceutical Co., Inc., priority 1998, published 2003)", "key": {"[1]": {"test_system": "Balb/c mice", "assay": "Survival rate of mice singly administered with high doses of carrier", "type": "in vivo", "conditions": "pDBA, single", "procedure": "The survival rate of mice was investigated in the manner described below when high doses of pDBA solution were directly administered to the mice.\npDBA was dissolved in physiological saline solution to prepare pDBA solutions having different concentrations. The pDBA solutions were administered to Balb/c mice intravenously through tail veins, and their symptoms were observed. pDBAs obtained in Synthetic Examples 1-7 (all listed in Table 2) were used. […]"}, "[2]": {"test_system": "Balb/c mice", "assay": "Gene introduction into mice with plasmid A/pDBA complexes given intravenously through tail veins, luciferase activity in tissues", "type": "in vivo", "conditions": "for luciferase activity in the liver: plasmid/pDBA 1/7 (w/w)", "procedure": "A solution of plasmid A and a solution of pDBA were prepared, respectively, at twice the desired concentration. Approximately 30 minutes prior to administration, the pDBA solution was added dropwise to the plasmid solution with stirring to prepare a plasmid/(nucleic acid carrier) complex solution. DMEM medium was used as solvent. Specifically, a 50 μg/ml plasmid solution was prepared such that a plasmid/(nucleic acid carrier) complex solution having a plasmid concentration of 25.0 μg/ml would be used as an administration sample.\nComplex solutions were prepared from pDBA obtained in Example 3 and plasmid A such that the weight ratio of plasmid/pDBA was 1/7 (w/w) and were administered to Balb/c mice intravenously through tail veins. The dose of plasmid A per mouse was 12.5 μg/0.5 ml. Two days and twenty one days after administration the luciferase activity was measured in the lung, the liver and the spleen whereby gene introduction to the respective were determined.\nComplex solutions were prepared from pDBA obtained in Synthetic Example 3 and plasmid A such that different weight ratios of plasmid to pDBA (plasmid/pDBA=1/0, 1/1, 1/5, 1/10, and 1/20) were realized; and they were administered to Balb/c mice intravenously through tail veins.\nTwo days after administration the luciferase activity found in the liver was measured whereby gene introduction to the respective mouse tissues were determined.\nComplexes were prepared from five kinds of pDBA obtained in Synthetic Examples 1, 2, 3, 4, and 5 (all listed in Table 2) and plasmid A such that the weight ratio of plasmid/pDBA was 1/5 (w/w); and they were administered to mice intravenously through tail veins. Two days after administration the luciferase activity in the liver was measured.\nSimilarly to Example 4, Plasmid A/pDBA complex solutions that were prepared were administered to Balb/C mice (8-week old male) intravenously through tail veins. Gene expression in the liver after administration was assessed by measuring the luciferase activity. pDBA obtained in Synthetic Example 3 in Table 2 was used to prepare a complex solution such that plasmid/pDBA was equal to 1/5 (w/W), which was used in the administration described above."}, "[3]": {"test_system": "guinea pigs (Hartley line)", "conditions": "guinea pig, in vivo"}, "[4]": {"test_system": "HepG2 cells", "assay": "Gene introduction into HepG2 cells with plasmid A/pDBA complexes, activity of the expressed luciferase", "type": "cell-based", "conditions": "plasmid/pDBA weight ratios 1/1 to 1/20 (w/w), FIG. 3", "procedure": "A solution of a plasmid encoding the luciferase gene (about 5.25 kb: PicaGene control vector into which the luciferase gene was previously introduced (Toyo Ink Mfg. Co. Ltd.) that will be referred to as “plasmid A” hereinafter) and a solution of a nucleic acid carrier were prepared, respectively, at twice the desired concentration. Approximately 30 minutes prior to administration, the nucleic acid carrier solution was added dropwise to the plasmid solution with stirring to prepare a plasmid/(nucleic acid carrier) complex solution. DMEM medium (Sigma-Aldrich Corporation) was used as solvent. Specifically, a 25 μg/ml plasmid solution was prepared such that a plasmid/(nucleic acid carrier) complex solution having a plasmid concentration of 12.5 μg/ml would be used as an administration sample.\nHepG2 cells were inoculated onto a 12-well multi-well plate (Coaster Inc.) at 1×10^5 cells/well one day prior to testing. […] The luciferase activity of the supernatant was measured on a Luciferase Assay System (Toyo Inc. Mfg. Co. Ltd.) using a luminometer (Lumit LB9501 available from Berthold Pty Ltd.). The protein concentration of the centrifuged supernatant was measured in a Protein Assay Kit (Bio-Rad Laboratories, Inc.) using a microplate reader (Rainbow Thermo available from Tecan U.S., Inc.). […]"}, "[5]": {"test_system": "HepG2 cells", "assay": "Introduction of FITC-labeled oligonucleotide into HepG2 cells using pDBA, flow cytometer", "type": "cell-based", "conditions": "HepG2, 4 hours, FIG. 11 and 12", "procedure": "An oligonucleotide labeled with FITC (20 mer, Pharmacia Corporation) was used to assess the efficiency of introduction into cells for the. complexes of the oligonucleotide with various pDBAs.\nHepG2 cells were inoculated onto a 12-well petri dish at 1×10^5 cells/well and cultured for 24 hours. The FITC-labeled oligonucleotide was used, and pDBAs obtained in Synthetic Examples 3 and 5 were used as the nucleic acid carriers. Complexes were prepared from these three kinds (pDBAs and the FITC-labeled oligonucleotide) such that the ratios of oligonucleotide/pDBA were 1/1, 1/5, and 1/10 (w/w). The complex solutions were added to the HepG2 cells; and after culturing for 4 hours, the cells were washed with PBS(−) twice. After removal of PBS(−), the cells were separated from the dish using a cell dissociation solution (SIGMA-Aldrich Corporation) and the cell suspensions were subjected to measurement with a flow cytometer (FACS Calibur available from Becton Dickinson). The results are shown in FIG. 11 (oligonucleotide/pDBA=1/5(w/w)), where M1 represents the results from control experiment and M2 represents the results from the experiment using the FITC-labeled oligonucleotide)."}}}
{"substance": "Poly(DL-2,4-diaminobutyric acid) Acetate [Synthetic Example 6]", "values": [{"measurement": "Survival rate (survival number/case number)", "setting": "[1]; dose 3.1 mg/kg iv, listed as 278, 3.1 mg/kg", "result": "3/3"}, {"measurement": "Survival rate (survival number/case number)", "setting": "[1]; dose 6.3 mg/kg iv, listed as 278, 6.3 mg/kg", "result": "0/3"}]}
{"substance": "Poly(DL-2,4-diaminobutyric acid) Acetate [Synthetic Example 5]", "values": [{"measurement": "Survival rate (survival number/case number)", "setting": "[1]; dose 3.1 mg/kg iv, listed as 170, 3.1 mg/kg", "result": "3/3"}, {"measurement": "Survival rate (survival number/case number)", "setting": "[1]; dose 6.3 mg/kg iv, listed as 170, 6.3 mg/kg", "result": "0/3"}]}
{"substance": "Poly(DL-2,4-diaminobutyric acid) Acetate [Synthetic Example 3]", "values": [{"measurement": "Survival rate (survival number/case number)", "setting": "[1]; dose 3.1 mg/kg iv, listed as 49, 3.1 mg/kg", "result": "3/3"}, {"measurement": "Survival rate (survival number/case number)", "setting": "[1]; dose 6.3 mg/kg iv, listed as 49, 6.3 mg/kg", "result": "3/3"}, {"measurement": "luciferase activity in the liver", "setting": "[2]; 21 days after iv administration, FIG. 5B", "result": "maintained even 21 days after administration"}, {"measurement": "duration of gene expression in the liver after a single administration", "setting": "[2]; Balb/C mice, iv tail vein, plasmid A, plasmid/pDBA 1/5 (w/W), FIG. 8", "result": "≥ 7", "unit": "months"}, {"measurement": "gene expression (luciferase activity in the liver)", "setting": "[2]; two days after iv administration, plasmid/pDBA 1/0, 1/1, 1/5, 1/10, 1/20, FIG. 6", "result": "As the quantity of pDBA relative to the plasmid increases, the gene expression has the tendency to increase"}, {"measurement": "luciferase activity in the liver", "setting": "[2]; two days after iv administration, compared with plasmid only, FIG. 5A", "result": "markedly high luciferase activity"}, {"measurement": "immunogenicity", "setting": "[3]", "result": "very low"}, {"measurement": "gene expression (activity of the expressed luciferase)", "setting": "[4]", "result": "as the quantity of pDBA relative to plasmid increases, so does the gene expression"}]}
{"substance": "Poly(DL-2,4-diaminobutyric acid) Acetate [Synthetic Example 7]", "values": [{"measurement": "Survival rate (survival number/case number)", "setting": "[1]; dose 3.1 mg/kg iv, listed as 348, 3.1 mg/kg", "result": "1/3"}, {"measurement": "Survival rate (survival number/case number)", "setting": "[1]; dose 6.3 mg/kg iv, listed as 348, 6.3 mg/kg", "result": "0/3"}]}
{"substance": "Poly(DL-2,4-diaminobutyric acid) Acetate [Synthetic Example 2]", "values": [{"measurement": "Survival rate (survival number/case number)", "setting": "[1]; dose 3.1 mg/kg iv, listed as 26, 3.1 mg/kg", "result": "3/3"}, {"measurement": "Survival rate (survival number/case number)", "setting": "[1]; dose 6.3 mg/kg iv, listed as 26, 6.3 mg/kg", "result": "3/3"}]}
{"substance": "Poly(DL-2,4-diaminobutyric acid) Acetate [Synthetic Example 1]", "values": [{"measurement": "cellular introduction / incorporation of the FITC-labeled oligonucleotide", "setting": "[5]", "result": "little incorporation of oligonucleotide"}, {"measurement": "Survival rate (survival number/case number)", "setting": "[1]; dose 1.6 mg/kg iv", "result": "3/3"}, {"measurement": "Survival rate (survival number/case number)", "setting": "[1]; dose 3.1 mg/kg iv, listed as 12, 3.1 mg/kg", "result": "3/3"}, {"measurement": "Survival rate (survival number/case number)", "setting": "[1]; dose 6.3 mg/kg iv, listed as 12, 6.3 mg/kg", "result": "3/3"}, {"measurement": "Survival rate (survival number/case number)", "setting": "[1]; dose 12.5 mg/kg iv", "result": "0/3"}]}
{"substance": "Poly(DL-2,4-diaminobutyric acid) Acetate [Synthetic Example 4]", "values": [{"measurement": "Survival rate (survival number/case number)", "setting": "[1]; dose 3.1 mg/kg iv, listed as 62, 3.1 mg/kg", "result": "3/3"}, {"measurement": "Survival rate (survival number/case number)", "setting": "[1]; dose 6.3 mg/kg iv, listed as 62, 6.3 mg/kg", "result": "2/3"}]}
